Test systems include CCRF-CEM leukemia; SNB-19 CNS; EKVX NSCLC; SK-MEL-28 melanoma; SK-OV-3 ovarian; T-47D breast; HCC-2998 colon; UACC-62 melanoma; HOP-62 NSCLC; OVCAR-8 ovarian; UACC-257 melanoma.
Assay in all cases: NCI-60 cell line screen, 48 h

The structures appear in SMILES notation. Values joined by “and” are separate entries in the source; they are usually repeats but may differ in a detail not shown here. Identical values can stand only once.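 How tested: cells in 96-well plates exposed to compound for 48 hours at five concentrations. GI50 marks 50% less growth. TGI is the concentration that stops growth completely.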

Regarding `Clc1nc2c(-c3cccs3)ncnc2n1Cc1ccccc1`, the TGI with CCRF-CEM leukemia is > 100 µM; with SNB-19 CNS it was > 78.3 µM; in the assay on EKVX NSCLC, 55.4 µM; in the assay on SK-MEL-28 melanoma, > 100 µM; in the assay with SK-OV-3 ovarian, > 95.4 µM; in the assay on T-47D breast it was > 91.5 µM. The TGI in the assay on HCC-2998 colon was 9.84 µM; in the assay with UACC-62 melanoma, > 100 µM; in the assay with HOP-62 NSCLC, > 100 µM; with OVCAR-8 ovarian it was > 100 µM; in the assay on UACC-257 melanoma, 61.9 µM.

For the compound `CN1CCN(c2ccc3[nH]c(C4=C(O)c5nc(CO)n(C)c5C(=O)C4=O)nc3n2)CC1`, the TGI in the assay with CCRF-CEM leukemia, with SNB-19 CNS, in the assay on EKVX NSCLC, with SK-MEL-28 melanoma, with SK-OV-3 ovarian and in the assay on T-47D breast was > 100 µM in each case. In addition, the TGI in the assay on HCC-2998 colon, in the assay on UACC-62 melanoma, in the assay with HOP-62 NSCLC, in the assay with OVCAR-8 ovarian and in the assay with UACC-257 melanoma was > 100 µM each time.

Take `O=C1OC(CN2CCN(c3ccccc3)CC2)CN1C(=S)Nc1ccccc1` (stereo not drawn): the TGI in the assay with CCRF-CEM leukemia, in the assay with SNB-19 CNS, in the assay with EKVX NSCLC, with SK-MEL-28 melanoma, with SK-OV-3 ovarian and with T-47D breast was > 100 µM in each case. Further, the TGI with HCC-2998 colon, in the assay on UACC-62 melanoma, in the assay on HOP-62 NSCLC, in the assay with OVCAR-8 ovarian and in the assay with UACC-257 melanoma was > 100 µM in each case.

Regarding `O=C(C1OC1c1ccc([N+](=O)[O-])cc1)C12CC3CC(CC(C3)C1)C2` (stereo not drawn), the TGI stood at 7.66 µM in the assay with CCRF-CEM leukemia; 32 µM in the assay on SNB-19 CNS; 37.4 µM in the assay on EKVX NSCLC; 33.4 µM in the assay on SK-MEL-28 melanoma; 49.6 µM in the assay with SK-OV-3 ovarian; 37.3 µM in the assay on T-47D breast. Moreover, the TGI was determined as 44.4 µM in the assay on HCC-2998 colon; 28.9 µM with UACC-62 melanoma; 56.3 µM in the assay with HOP-62 NSCLC; 38.2 µM with OVCAR-8 ovarian; 30.9 µM with UACC-257 melanoma.

As for `S=C(Nc1ccc(Br)cn1)NC12CC3CC(CC(C3)C1)C2`, the TGI was 70.3 µM in the assay with CCRF-CEM leukemia; 25.9 µM in the assay with SNB-19 CNS; 65 µM in the assay with EKVX NSCLC; > 100 µM in the assay on SK-MEL-28 melanoma; 67.6 µM in the assay with SK-OV-3 ovarian; > 100 µM in the assay with T-47D breast. Besides, the TGI was 83.3 µM in the assay on HCC-2998 colon; 43.4 µM with UACC-62 melanoma; > 100 µM in the assay on HOP-62 NSCLC; 25.9 µM in the assay on OVCAR-8 ovarian; > 100 µM with UACC-257 melanoma.

For the compound `COC(=O)CCCCC/C(=C\C(=O)C(Cl)(Cl)Cl)OC`, the TGI in the assay on CCRF-CEM leukemia was > 100 µM; with SNB-19 CNS, > 100 µM; in the assay with EKVX NSCLC, 56.8 µM; in the assay on SK-MEL-28 melanoma, > 100 µM; in the assay with SK-OV-3 ovarian it was > 100 µM; in the assay on T-47D breast it was > 100 µM. The TGI with HCC-2998 colon is 35.6 µM; in the assay on UACC-62 melanoma, > 100 µM; in the assay with HOP-62 NSCLC it was > 100 µM; in the assay with OVCAR-8 ovarian it was 73.6 µM; in the assay with UACC-257 melanoma, 57.7 µM.

Take `CC/C(Cl)=N\OC(=O)Nc1ccc(C#N)cc1`: the TGI in the assay with CCRF-CEM leukemia was 4.1 µM; in the assay on SNB-19 CNS, > 100 µM; in the assay with EKVX NSCLC, 26.3 µM; in the assay with SK-MEL-28 melanoma, 33.8 µM; in the assay on SK-OV-3 ovarian, 22.3 µM; with T-47D breast, 30.7 µM. Moreover, the TGI in the assay on HCC-2998 colon turned out to be 30.1 µM; with UACC-62 melanoma it was 28.4 µM; in the assay with HOP-62 NSCLC, 39.2 µM; in the assay on OVCAR-8 ovarian, 30.7 µM; with UACC-257 melanoma, 29.8 µM.

As for `CC(C)[Si](OC1=CCCCCC12C(=O)N(C)c1ccccc12)(C(C)C)C(C)C` (stereo not drawn), the TGI in the assay with CCRF-CEM leukemia came out at 36.5 µM; in the assay with SNB-19 CNS, 29.5 µM; in the assay with EKVX NSCLC, 38.6 µM; in the assay on SK-MEL-28 melanoma it was 60.4 µM; in the assay with SK-OV-3 ovarian, 46.6 µM; in the assay with T-47D breast, 21.3 µM. For the same compound, the TGI in the assay with HCC-2998 colon is 38.3 µM; in the assay on UACC-62 melanoma it was 59.2 µM; in the assay with HOP-62 NSCLC, 58.1 µM; in the assay on OVCAR-8 ovarian, 44.6 µM; with UACC-257 melanoma it was 45.8 µM.

Turning to `Cc1ccc(C2=Nc3c(N)nc(N)nc3NC(c3ccccc3)C2)cc1` (stereo not drawn), the TGI with CCRF-CEM leukemia is 48.5 µM and 96.9 µM; with SNB-19 CNS, 27 µM and 32.9 µM; with EKVX NSCLC it was 27.2 µM and 28.2 µM; with SK-MEL-28 melanoma, 24.8 µM and 35.3 µM; in the assay with SK-OV-3 ovarian it was 27.1 µM and 27.6 µM; with T-47D breast, 28.2 µM and 32.6 µM. For the same compound, the TGI was 19.3 µM and 18.7 µM in the assay on HCC-2998 colon; 22.7 µM and 26 µM with UACC-62 melanoma; 25.5 µM and 22.3 µM with HOP-62 NSCLC; 29.3 µM and 28.8 µM in the assay on OVCAR-8 ovarian; 24.6 µM and 32.4 µM in the assay with UACC-257 melanoma.

`O=C(O)CCC1(c2ccccc2)NC(=O)NC1=O` (stereo not drawn): the TGI with CCRF-CEM leukemia, in the assay on SNB-19 CNS, in the assay on EKVX NSCLC, with SK-MEL-28 melanoma, with SK-OV-3 ovarian and with T-47D breast was > 100 µM each time. Besides, the TGI in the assay on HCC-2998 colon, with UACC-62 melanoma, in the assay on HOP-62 NSCLC, in the assay on OVCAR-8 ovarian and with UACC-257 melanoma was > 100 µM in each case.

For `Cn1c(=O)n(CC(Br)CBr)c(=O)n(CC(Br)CBr)c1=O` (stereo not drawn), the TGI with CCRF-CEM leukemia was 66.9 µM; in the assay on SNB-19 CNS it was > 100 µM; in the assay with EKVX NSCLC it was 88.7 µM; with SK-MEL-28 melanoma, > 100 µM; in the assay on SK-OV-3 ovarian it was > 100 µM; in the assay on T-47D breast, > 100 µM. The TGI in the assay on HCC-2998 colon is 81.1 µM; in the assay with UACC-62 melanoma it was 72.8 µM; in the assay on HOP-62 NSCLC, > 100 µM; with OVCAR-8 ovarian it was > 100 µM; in the assay on UACC-257 melanoma, > 100 µM.

As for `O=C(/C=C/c1ccc(O)c(O)c1)OCCOC(=O)/C=C/c1ccc(O)c(O)c1`, the TGI in the assay with CCRF-CEM leukemia was > 100 µM; with SNB-19 CNS, > 100 µM; in the assay on EKVX NSCLC, 83.1 µM; in the assay on SK-MEL-28 melanoma, > 100 µM; with SK-OV-3 ovarian it was 55.5 µM; in the assay with T-47D breast, 51.2 µM. Moreover, the TGI with HCC-2998 colon was > 100 µM; in the assay with UACC-62 melanoma, 35.1 µM; in the assay on HOP-62 NSCLC, 47.4 µM; in the assay on OVCAR-8 ovarian, > 100 µM; in the assay on UACC-257 melanoma it was 44.5 µM.

Consider `CC(=O)c1cccc(NC2C(N)C(NC(=O)N(C)C)(C(C)O)C(C)(O)C2(O)COC(=O)c2c(C)cccc2O)c1` (stereo not drawn), for which the TGI in the assay with CCRF-CEM leukemia is 0.205 µM; with SNB-19 CNS, 0.0992 µM and 0.936 µM; in the assay on EKVX NSCLC it was 0.08 µM; in the assay with SK-MEL-28 melanoma, 1.04 µM and 0.532 µM; with SK-OV-3 ovarian, 0.0808 µM and 0.205 µM; in the assay with T-47D breast, 0.00834 µM. The TGI in the assay with HCC-2998 colon came to 0.00295 µM; in the assay on UACC-62 melanoma it was 0.119 µM; in the assay with HOP-62 NSCLC, 0.0786 µM; with OVCAR-8 ovarian, 0.131 µM. Moreover, the GI50 with UACC-257 melanoma is 0.0314 µM.

The values above are taken from PubChem BioAssay (NCI).
